Data as given in PubChem BioAssay (NCI).
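How tested: cells in 96-well plates exposed to compound for 48 hours at five concentrations. Here, GI50 denotes the concentration required for 50% inhibition of growth. TGI marks complete inhibition of growth.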

Tests used:
Test in all cases: NCI-60 cell line screen, 48 h
[1] = tested on: OVCAR-4 ovarian
[2] = tested on: HOP-92 NSCLC
[3] = tested on: OVCAR-5 ovarian
[4] = tested on: MOLT-4 leukemia
[5] = tested on: NCI-H226 lung
[6] = tested on: HS 578T breast
[7] = tested on: K-562 leukemia
[8] = tested on: PC-3 prostate
[9] = tested on: UACC-62 melanoma
[10] = tested on: A549 NSCLC

| SMILES | TGI [1] [µM] | TGI [2] [µM] | TGI [3] [µM] | TGI [4] [µM] | TGI [5] [µM] | TGI [6] [µM] | TGI [7] [µM] | TGI [8] [µM] | TGI [9] [µM] | TGI [10] [µM] | GI50 [1] [µM] | GI50 [2] [µM] | GI50 [3] [µM] | GI50 [4] [µM] | GI50 [5] [µM] | GI50 [6] [µM] | GI50 [7] [µM] | GI50 [8] [µM] | GI50 [9] [µM] | GI50 [10] [µM] |
| --- | --- | --- | --- | --- | --- | --- | --- | --- | --- | --- | --- | --- | --- | --- | --- | --- | --- | --- | --- | --- |
| Cn1c(=O)c2c(nc(Nc3ccc(Cl)cc3)n3c(=O)n(-c4ccccc4)c(=O)n23)n(C)c1=O | > 100 | > 100 | > 100 | > 100 | > 100 | > 100 | > 100 | > 100 | > 100 | > 100 |  |  |  |  |  |  |  |  |  |  |
| COc1cc2c(cc1OC)-c1cc3cc(OC)c(OC)cc3c(=O)n1CC2 | > 100 | 10.5 | > 100 | > 100 | > 85.9 | > 57.5 | > 100 | > 100 | 34.7 | > 100 |  |  |  |  |  |  |  |  |  |  |
| C=C(C(=O)OC)c1cc2ccccc2n1S(=O)(=O)c1ccccc1 | 11.3 | 3.34 | 21.7 | > 24 | 7.22 | 18.8 | > 100 | 9.51 | 15 | 31.9 |  |  |  |  |  |  |  |  |  |  |
| CCOc1ccc2nc(NC(NC(=O)c3cccnc3)(C(F)(F)F)C(F)(F)F)sc2c1 | > 100 | 80.6 | > 100 | 55.5 | > 100 | > 100 | > 100 | 78.6 | 91.6 | > 100 |  |  |  |  |  |  |  |  |  |  |
| N#Cc1nc(CCC(c2nc(C#N)c(N)o2)N2C(=O)c3ccccc3C2=O)oc1N (stereo not given) | > 100 | > 100 | > 100 | > 100 | > 100 | > 100 | > 100 | > 100 | > 100 | > 100 |  |  |  |  |  |  |  |  |  |  |
| NC1CC(=O)c2sccc21 (stereo not given) | > 100 | > 100 | > 100 | > 100 | > 100 | > 100 | > 100 | > 100 | > 100 | > 100 |  |  |  |  |  |  |  |  |  |  |
| Nc1ccc(Oc2ccc(C34CC5CC6C3CC3CC4C(C5)C6(c4ccc(Oc5ccc(N)c(O)c5)cc4)C3)cc2)cc1O | 22.2 | 8.41 | > 39.5 | 12.9 | 14.3 | 80.5 | > 54.8 | 11.9 | 26.3 | 12.9 |  |  |  |  |  |  |  |  |  |  |
| CC1(C)CCC(=O)NC1CC(=O)CC1NC(=O)CCC1(C)C (stereo not given) | > 100 | > 100 | > 100 | > 100 | > 100 | > 100 | > 100 | > 100 | > 100 | > 100 |  |  |  |  |  |  |  |  |  |  |
| CCN(CC)CCCOc1cc2c(cc1OC)C(=O)N1CCC[C@H]1C=N2 | > 100 | 70.9 | > 100 | 50.2 | 65.8 | > 100 | > 100 | > 100 | 54.3 | > 100 |  |  |  |  |  |  |  |  |  |  |
| C#CCn1c(=O)c(Cl)cn(/C(=C/C(=O)OCC)C(=O)OCC)c1=O | 38.8 | 22 | 31.7 | > 23.9 | > 59.5 | > 100 | 7 | 31.5 | 29.8 | > 62.8 |  |  |  |  |  |  |  |  |  |  |
| O=C1CCCC2=C1CC1=C(CCCC1=O)N2c1ccccc1 | > 100 | > 100 | > 100 | > 100 | > 100 | > 100 | > 100 | > 100 | > 100 | > 100 |  |  |  |  |  |  |  |  |  |  |
| Oc1ccc(O)c(CNc2ccccc2)c1 | 28.6 | 20.8 | 41.7 | > 100 | 78.4 | > 100 | > 100 | 30 | 30.6 | > 100 |  |  |  |  |  |  |  |  |  |  |
| CC(C)(C)[C@H]1CCC2(OCCO2)[C@](O)(CCCO)C1 | > 100 | > 100 | > 100 | > 100 | > 100 | > 100 | > 100 | > 100 | > 100 | > 100 |  |  |  |  |  |  |  |  |  |  |
| O=C(N/N=C\c1ccccc1)Nc1cccc2ccccc12 | > 100 | > 100 | > 100 | > 100 | 83.6 | 66.7 | > 100 | 86.5 | > 100 | > 100 |  |  |  |  |  |  |  |  |  |  |
| Cc1ccc(C(=O)Nc2ccc(S(=O)(=O)O)c3cc(S(=O)(=O)O)cc(S(=O)(=O)O)c23)cc1NC(=O)c1cccc(NC(=O)Nc2cccc(C(=O)Nc3cc(C(=O)Nc4ccc(S(=O)(=O)O)c5cc(S(=O)(=O)O)cc(S(=O)(=O)O)c45)ccc3C)c2)c1 (tested in a mixture with another compound) | > 50 | > 50 | > 50 | > 50 | > 50 | > 50 | > 50 | > 50 | > 50 | > 50 |  |  |  |  |  |  |  |  |  |  |
| COC(=O)c1cc(C(=CCC[C@H]2CC[C@@]3(C)C(CCC4C3CC[C@@]3(C)C4CC[C@@H]3C(C)CCCC(C)C)C2)c2cc(Cl)c(OC(=O)c3ccccc3)c(C(=O)OC)c2)cc(Cl)c1OC(=O)c1ccccc1 (stereo not given in full) | > 10 | > 10 | > 10 | > 10 | > 10 | > 10 | > 10 | > 10 | > 10 | > 10 |  |  |  |  |  |  |  |  |  |  |
| N=c1c2c(=S)n(-c3ccccc3)c(=S)n(-c3ccccc3)c2nc(SCCN2CCOCC2)n1-c1ccccc1 | 3.4 | 4.12 | 33.9 | 3.75 | 15.5 | > 100 | 4.18 | 3.35 | 3.29 | 3.36 |  |  |  |  |  |  |  |  |  |  |
| COC(=O)[C@H](Cc1ccccc1)NP(=O)(O)OCC1C=CC(n2cc(C)c(=O)[nH]c2=O)O1 (stereo not given in full) | > 100 | > 100 | > 100 | > 100 | > 100 | > 100 | > 100 | > 100 | > 100 | > 100 |  |  |  |  |  |  |  |  |  |  |
| CC(=O)O[C@H]1C[C@H]2C(=S)Nc3ccccc3C(=S)N2C1 | > 100 | > 100 | > 100 | > 100 | > 100 | > 100 | > 100 | > 100 | > 100 | > 100 |  |  |  |  |  |  |  |  |  |  |
| C#CC(O)/C=C/C(O)CCCC(O)CC#CC(O)C#CC(O)CCCC(O)/C=C/CCCC(=O)CCCCCCCCCCCCCCCC(O)C(O)C#CC(=O)O (stereo not given) | 28.2 | > 50 | > 50 | > 50 | > 50 | > 50 | > 50 | > 50 | > 50 | > 50 |  |  |  |  |  |  |  |  |  |  |
| Clc1ncc(Cl)c(Cl)n1 | 3.53 | 3.43 | 34.2 | 4.31 | 19 | 14.9 | 4.08 | 5.64 | 4.42 | 28.8 |  |  |  |  |  |  |  |  |  |  |
| O=[N+]([O-])c1ccc2c(c1)c(S(=O)(=O)O)cc1nonc12 | > 100 | > 100 | > 100 | > 100 | > 100 | > 100 | > 100 | > 100 | > 100 | > 100 |  |  |  |  |  |  |  |  |  |  |
| C=CCCCCCCCCCOC1C=CC(OC(C)=O)C(COC(C)=O)O1 (stereo not given) | > 100 | > 100 | > 100 | 86 | > 100 | 63 | 17.4 | > 100 | > 100 | > 100 |  |  |  |  |  |  |  |  |  |  |
| CCc1nc2ccc(C(F)(F)F)cc2[nH]c1=O | > 100 | > 100 | > 100 | > 100 | > 100 | > 100 | > 100 | > 100 | > 100 | > 100 |  |  |  |  |  |  |  |  |  |  |
| Clc1nc(Cl)c(CBr)c(Cl)n1 | 19.7 | 5.07 | 15 | > 23 | > 51.7 | > 56.8 | > 23.5 | 17.7 | 11.4 | 35.2 |  |  |  |  |  |  |  |  |  |  |
| c1ccc(C(CCN2CC3CCC(CC3)C2)c2ccccc2)cc1 | > 100 | 64.4 | 56.8 | 42.6 | 35.6 | 50.5 | 47.7 | > 100 | 35.3 | > 100 |  |  |  |  |  |  |  |  |  |  |
| CC12CCC(C(Nc3ccccn3)C1=O)C2(C)C (stereo not given) | > 100 | > 100 | > 100 | > 100 | > 100 | > 100 | > 100 | > 100 | > 100 | > 100 |  |  |  |  |  |  |  |  |  |  |
| Oc1ccc(C#CCOc2ccccc2)cc1CNCCN(Cc1ccccn1)Cc1ccccn1 | 3.71 | 4.1 | 3.72 | 5.56 | 3.1 | 6.14 | 13.8 | 4.06 | 3.59 | 3.47 | 1.29 | 1.57 | 1.18 | 2 | 1.34 | 1.69 | 2.49 | 0.799 | 1.68 | 1.33 |
| O=c1cc(N=Nc2ccc(Cl)cc2)[nH]c(=O)[nH]1 | 9.03 | 5.48 | 32.2 | 7.5 | 20.4 | 12.7 | > 31.6 | 11.7 | 7.11 | 18.8 |  |  |  |  |  |  |  |  |  |  |
| Oc1cccc(-c2cn3cc(C(F)(F)F)ccc3n2)c1 | > 100 | > 100 | > 100 | 40.1 | > 100 | > 100 | > 100 | > 100 | > 100 | > 100 |  |  |  |  |  |  |  |  |  |  |
